The data set relates to Yap1 mRNA. The experiment in a line: Antisense inhibition of human Yap1 in A-431 cells by cEt gapmers, single dose (Example 2, RTS4814). Format: cell-based. The method, boiled down:
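Read-out is Yap1 mRNA as percent of untreated cells, by real-time RT-PCR (probe set RTS4814) normalized to total RNA via RIBOGREEN. Cells were A-431 dosed with 2,000 nM gapmer without transfection for approximately 48 hours.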

[1] abbreviates: Table 19, A-431 cells, 5,000 cells per well, free uptake, 2,000 nM modified oligonucleotide, approx. 48 hours, RTS4814, normalized to RIBOGREEN, Yap1 mRNA as percent of untreated control.
[2] abbreviates: Table 25, Yap1 mRNA as percent of untreated control, 3-10-3 cEt gapmers targeting SEQ ID NO.: 1, and 2.
[3] abbreviates: Table 21, Yap1 mRNA, percent of untreated control, 3-10-3 cEt gapmers targeting SEQ ID NO.: 1 and 2.
Where [4] appears, read: Table 18, A-431 cells, 5,000 cells per well, free uptake, 2,000 nM modified oligonucleotide, approx. 48 hours, RTS4814, normalized to RIBOGREEN, Yap1 mRNA as percent of untreated control.
Where [5] appears, read: Table 32, Yap1 mRNA, percent of untreated control, 3-10-3 cEt gapmers targeting SEQ ID NO.: 1, and 2.
[6] abbreviates: Table 23, Yap1 mRNA as percent of untreated control, 3-10-3 cEt gapmers, single dose.
[7] abbreviates: Table 5, A-431 cells, 5,000 cells per well, free uptake, 2,000 nM modified oligonucleotide, approx. 48 hours, RTS4814, normalized to RIBOGREEN, Yap1 mRNA relative to untreated control cells.

Strand notation (5' to 3'): a small letter for the sugar, then the base; units joined by * are phosphorothioate-linked, units joined directly phosphodiester-linked; [ ] holds rarer units or linkages, { } end groups; capitals alone tell only the bases. k = constrained ethyl (cEt); [5mC] = 5-methylcytosine; d = 2'-deoxy (DNA)

As for “1074309 (antisense k[5mC]*k[5mC]*kG*d[5mC]*dA*dT*dT*dG*d[5mC]*d[5mC]*dT*dG*dT*kG*kG*k[5mC]) [Compound 1074309]”, the “YAP1 (% UTC)” value under setting [1] was 80 % UTC.

For “1075467 (antisense k[5mC]*kA*kT*dT*dA*dA*dT*dG*d[5mC]*d[5mC]*dA*dT*d[5mC]*k[5mC]*kA*kA) [Compound 1075467]”, under setting [2], the “YAP1 (% UTC)” value came to 60 % UTC.

Take “1075463 (antisense k[5mC]*kT*kT*dA*dA*dT*d[5mC]*d[5mC]*dA*dA*dA*dG*d[5mC]*kT*kT*k[5mC]) [Compound 1075463]”: the “YAP1 (% UTC)” value under setting [3] was found to be 34 % UTC.

In the case of “1076324 (kG*k[5mC]*kT*d[5mC]*dA*dA*dA*dA*dG*dG*dT*d[5mC]*dT*k[5mC]*kT*k[5mC]; antisense) [Compound 1076324]”, the “YAP1 (% UTC)” value under setting [4] is recorded as 13 % UTC.

“1075882 (kG*kA*kA*dA*dA*dT*d[5mC]*d[5mC]*dT*dG*dA*dT*dT*kA*kA*k[5mC]; antisense) [Compound 1075882]”: for the setting “Table 24, Yap1 mRNA as percent of untreated control, 3-10-3 cEt gapmers targeting SEQ ID NO.: 1, and 2”, the “YAP1 (% UTC)” value is 73 % UTC.

As to “1075282 (antisense kG*kA*kA*dA*dA*dA*dT*dG*dA*dG*d[5mC]*d[5mC]*d[5mC]*kG*kG*kT) [compound 1075282]”, the “YAP1 (% UTC)” value under setting [5] is 103 % UTC.

Take “1075979 (k[5mC]*kA*kT*dA*dA*dT*d[5mC]*d[5mC]*dA*d[5mC]*dT*dA*dT*kG*k[5mC]*kA; antisense) [Compound 1075979]”: the “YAP1 (% UTC)” value under setting [2] is reported as 18 % UTC.

For the substance “716532 (antisense k[5mC]*kA*kA*dG*dA*dA*dG*d[5mC]*dA*dG*dT*dT*dA*kA*kG*k[5mC]) [Compound 716532]”, under “A-431 cells, 5,000 cells per well, free uptake, 2,000 nM modified oligonucleotide, approx. 48 hours, RTS4814, normalized to RIBOGREEN, Table 4, asterisk (*) = targets amplicon region of primer probe set”, the “YAP1 (% UTC)” value is reported as 70 % UTC.

Turning to “1074789 (kA*kT*k[5mC]*dA*dA*d[5mC]*d[5mC]*dA*dT*dA*dA*dG*dT*kA*kG*kA; antisense) [Compound 1074789]”, the “YAP1 (% UTC)” value under setting [1] is recorded as 17 % UTC.

With “1075787 (k[5mC]*kT*kT*dA*dA*dG*dG*dA*dT*dT*dG*dG*d[5mC]*kT*kA*kT; antisense) [Compound 1075787]”, the “YAP1 (% UTC)” value under setting [2] turned out to be 28 % UTC.

As for “1075271 (antisense kG*kA*kT*dG*dT*dG*dA*dT*d[5mC]*dT*dG*dT*dG*kA*kG*kA) [Compound 1075271]”, under setting [3], the “YAP1 (% UTC)” value is on record as 11 % UTC.

Regarding “1075442 (antisense kT*kA*kT*dT*dA*dG*dT*dT*d[5mC]*dT*dA*d[5mC]*dG*kA*kT*kT) [compound 1075442]”, the “YAP1 (% UTC)” value under setting [5] was determined as 71 % UTC.

In the case of “1074248 (antisense kG*kA*kT*d[5mC]*dG*dA*dT*dG*dT*dG*dA*dT*dT*kT*kA*kA) [Compound 1074248]”, the “YAP1 (% UTC)” value (Table 22, Yap1 mRNA as percent of untreated control, 3-10-3 cEt gapmers, single dose) was found to be 29 % UTC.

As to “1075153 (kA*kT*kT*dA*dT*dA*dA*dT*dG*dG*dG*dA*dG*kG*kA*kT; antisense) [compound 1075153]”, under “Yap1 mRNA as percent of untreated control, A-431 cells, 3-10-3 cEt gapmers targeting SEQ ID NO.: 1, and 2, Table 31”, the “YAP1 (% UTC)” value is given as 38 % UTC.

On to “1074857 (antisense kA*k[5mC]*kA*dT*dT*dG*dG*dT*dA*d[5mC]*dT*dA*dT*kA*kT*kA) [Compound 1074857]”, for which, under setting [6], the “YAP1 (% UTC)” value is recorded as 25 % UTC.

As to “716563 (kT*kG*kA*dA*dG*d[5mC]*dA*dA*dG*dT*dT*d[5mC]*dT*k[5mC]*kA*kA; antisense) [Compound 716563]”, the “YAP1 (% UTC)” value under setting [7] was 126 % UTC.

Consider “1076267 (kA*kT*kT*dT*dA*dA*dG*dG*dT*dG*d[5mC]*dA*dT*kA*kA*kG; antisense) [Compound 1076267]”, for which the “YAP1 (% UTC)” value under setting [2] is listed as 13 % UTC.

“1076388 (kG*kA*kA*dA*dT*dA*dT*dT*d[5mC]*dG*dA*dG*dA*kA*kG*kA; antisense) [Compound 1076388]”: the “YAP1 (% UTC)” value under setting [4] is on record as 6 % UTC.

On to “1076043 (k[5mC]*kA*kA*dA*dA*dA*dG*dG*d[5mC]*dT*dA*dT*dT*kG*kA*kG; antisense) [Compound 1076043]”, for which the “YAP1 (% UTC)” value under setting [2] was found to be 36 % UTC.

For “1074793 (kA*kA*kT*d[5mC]*dA*dA*dT*dG*dT*dG*d[5mC]*dT*d[5mC]*k[5mC]*kA*kT; antisense) [Compound 1074793]”, the “YAP1 (% UTC)” value under setting [6] was determined as 9 % UTC.

Consider “716497 (kA*kG*k[5mC]*dA*dG*d[5mC]*dT*dT*dT*dT*dG*d[5mC]*d[5mC]*kA*kG*kG; antisense) [Compound 716497]”, for which the “YAP1 (% UTC)” value under setting [7] came out at 65 % UTC.
